Experimental data as given in patent US20250250538A1, “METHODS FOR MAKING AND USING DIFFERENTIATED NEURAL CELLS” (RESEARCH DEVELOPMENT FOUNDATION, priority 2022, published 2025).

Tests used:
[1] = test system: human embryonic stem cell line HS420; assay: Dopaminergic differentiation of hESC with ALK inhibitors in the 3D-AirLiwell protocol, q-PCR after 2 and 4 weeks; type: cell-based; conditions: HS420, 3D-AirLiwell, q-PCR at 2 and 4 weeks; for activity with respect to general neural differentiation, compared to LDN/SB (dual smad inhibition): exposed from day 0 during one week at 0.2 μM and 0.8 μM; for effect on dopaminergic differentiation, compared to LDN/SB: exposed from day 0 during one week at 0.2 M and 0.8 M
Procedure: FIG. 22. Dopaminergic differentiation adding Alk-I compounds in 3D-Ali protocol. The concentrations of the compounds tested were 0.2 μM and 0.8 μM.
FIG. 23A-D. Quantitative PCR results: Dopaminergic differentiation adding Alk-I compounds in 3D-Ali protocol. Shown are qPCR results at week 2 and week 4 for (A) Ki-67 and Nestin; (B) Pax6 and B3-Tub; (C) Lmx1a and Nurr-1; and (D) Map-2 and TH. The data in FIGS. 23A-D shown in each group of 12 bars represents, from left to right: 1: Control day 0, 2: LDN193189/SB431542, 3: DMSO 0.2 μM, 4: DMSO 0.8 μM, 5: DMH1 0.2 μM, 6: DMH2 0.2 μM, 7: A-8301 0.2 μM, 8: K02288 0.2 μM, 9: DMH1 0.8 μM, 10: DMH2 0.8 μM, 11: A-8301 0.8 μM, 12: K02288 0.8 μM. The 11 bars in the bottom bar graph in FIG. 23D represent data, from left to right, from: 1: Control day 0, 2: LDN193189/SB431542, 3: DMSO 0.2 μM, 4: DMSO 0.8 μM, 5: DMH1 0.2 μM, 6: DMH2 0.2 μM, 7: A-8301 0.2 μM, 8: K02288 0.2 μM, 9: DMH1 0.8 μM, 10: DMH2 0.8 μM, and 11: A-8301 0.8 μM.
For neural differentiation, 2200 human pluripotent stem cells per microwell in supplemented X-VIVO medium were deposited on a substrate material consisting in molded microwells on an insert in air-liquid interface (720 microwells per well). In order to correctly distribute the cells in each microwell, the substrate material is gently shacked and put on a stable support for 15 min. Supplemented X-VIVO medium was added under the insert. Medium from the cell suspension added on the microwells, was then removed by aspiration with a 0.5×16 mm needle and spheroids are just covered by a thin film (10) of residual medium before incubation of the plate at 37° C. for 24 hours.
24 hours after spheroids formation, culture medium under the insert is replaced with fresh medium made by a combination of half X-VIVO and half Neurobasal medium without ROCK inhibitor supplemented with 1% of penicillin/streptomycin, 1% Non-essential amino-acids, 1% B-27 supplement (Thermofisher), L-Glutamin, 0.5 μM of SB431542, 10 μM LDN193189 (dual-SMAD inhibition cocktail), 100 ng/ml of SHH, 2 μM of Purmorphamin and 100 ng/ml FGF-8. Spheroids are then cultured in their individualized microwells in a conventional incubator at 37° C. and 5% C02. At day 3, 3 μM of CHIR99021 was added. The neurobasal medium replaced progressively the X-VIVO medium. At day 8, medium is replaced by Neurobasal medium supplemented with 1% of penicillin/streptomycin, 1% Non-essential amino-acids, 1% B-27 supplement, 3 μM of CHIR99021, 0.5 mM of cAMP, […], […], 5 ng/mL of FGF20, 1 ng/mL of TGF-B3 and 1 μM of Compound E. At day 13 CHIR99021 is removed. NB: for each medium exchange, the half of medium was refreshed, using 0.5 ml per well.
For qRT-PCR, RNA was extracted from dopaminergic neurospheres cultivated in immersion (3D-i) and in air-liquid culture interface (3D-ALi) derived from 3 different cell batches of HS420 cells. The time points for RNA extraction were days: 3, 8, 15, 22, 29, 43, 57. Total RNA isolation was performed using the Qiagen RNeasy kit according to the manufacturer's instructions. RNA concentration was determined by a spectrometer (Thermo Scientific™ NanoDrop 2000) and RNA quality was verified by the 2100 Bioanalyzer (Agilent). Quantitative PCR was performed with Tecan Freedom Evo by using SYBR green fluorescence. cDNA was produced from RNA by using the prime script RT reagent kit (Takara). All primers were diluted at a concentration of […], and a master mix was used (Power SYBR Green Master Mix, Thermo Fisher Scientific). To perform the RNA-sequencing, the same RNA used in qPCR, were used to analyze the gene expression at week 6 (=day 43) of differentiation. […]

[2] = test system: dopaminergic neurospheres; assay: Effects of antioxidants on three-dimensional dopaminergic neuron differentiation (3D-Ali); type: cell-based, human; conditions: 3D-Ali neurospheres cultured with anti-oxidant (FIG. 21B)
Source text: FIG. 20. Protocol design with the addition of anti-oxidants. FIG. 21A-B. Effects of DA maturation with the additional of anti-oxidants. […] The inventors also tested the effects of different antioxidants on three-dimensional dopaminergic neuron differentiation. […] Most of the tested anti-oxidants diminish TH expression during dopaminergic neuron differentiation.

[3] = test system: dopaminergic neurospheres; assay: Effect of laminin and hypoxia on dopaminergic maturation of neurospheres; type: cell-based, human; conditions: 2.5% and 10% laminin; normoxia (20% oxygen) or hypoxia (3% oxygen); day 29
Source text: FIG. 17. Experimental design and engineering of maturation protocol.
FIG. 18. Effect of hypoxia and laminin on dopaminergic maturation.
To improve the maturation step, 2.5% or 10% of Laminin 511 (Takkara) or Geltrex® (A growth factors reduced extracellular matrix, ThermoFisher) will be added into the cell culture medium to promote neuronal maturation of spheroids starting from day 1 of differentiation to the end and from day 13 to the end. RGD peptides could also be tested to enhance maturation, by adding them to the culture medium similarly to laminin or geltrex.
The inventors tested whether the additional of an extracellular matrix and/or hypoxia could improve the development of mature neurons. 2.5% and 10% laminin and normoxia (20% oxygen) or hypoxia (3% oxygen) was tested (FIG. 17). […] It was further hypothesized that other changes to the cell culture, such as modification of the volume of the cell culture medium could provide for an improvement in the maturation of neurons. […] In AirLiwell (6 well plate), a seeding 1.5 million cells per well (6 well AirLiwell plate) yields 2350 neurospheres.

Row | Compound | activity with respect to general neural differentiation, compared to LDN/SB (dual smad inhibition) [1] | effect on dopaminergic differentiation, compared to LDN/SB [1] | DA neuron differentiation [2] | effect on maturation of dopaminergic neurons [3]
1 | Cc1cccc(-c2nn(C(=S)Nc3ccccc3)cc2-c2ccnc3ccccc23)n1 [A-8301, 3-(6-Methyl-2-pyridinyl)-N -phenyl-4-(4-quinolinyl)-1H -pyrazole-1-carbothioamide] | activity comparable to LDN/SB | no major effects | – | –
2 | CC(C)Oc1ccc(-c2cnc3c(-c4ccnc5ccccc45)cnn3c2)cc1 [DMH1, 4-[6-[4-(1-Methylethoxy)phenyl]pyrazolo[1,5-a]pyrimidin-3-yl]-quinoline] | activity comparable to LDN/SB | roughly equipotent as compared to LDN/SB | – | –
3 | c1ccc2c(-c3cnn4cc(-c5ccc(OCCN6CCOCC6)cc5)cnc34)ccnc2c1 [DMH2, 4-[6-[4-[2-(4-Morpholinyl)ethoxy]phenyl]pyrazolo[1,5-a]pyrimidin-3-yl]quinoline] | activity comparable to LDN/SB | roughly equipotent as compared to LDN/SB | – | –
4 | COc1cc(-c2cc(-c3cccc(O)c3)cnc2N)cc(OC)c1OC [K02288] | activity comparable to LDN/SB | no major effects | – | –
5 | O=C1O[C@H]([C@@H](O)CO)C(O)=C1O [ascorbic acid] | – | – | marked enhancement | –
6 | laminin | – | – | – | did not provide any apparent effect
